Measurements from article PMC8748916, “Microbial enzymes induce colitis by reactivating triclosan in the mouse gastrointestinal tract” (Nature Communications, 2022).
“And” between values parts separate entries of the source, which are not always exact repeats. Identical values can stand only once.

Columns and labels:
[1] = LC-MS/MS of TCS and its metabolites in human stool and urine after use of TCS-containing personal care products; assay type: in vivo; conditions: for TCS metabolites in human stool / TCS metabolites in human urine: Treatment TCS, individual subjects;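 as to Profile in stool (%): molar share of summed TCS plus TCS-G plus TCS-sulfate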;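 as to Profile in urine (%): molar share of summed TCS plus TCS-G plus TCS-sulfate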;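 as to average molar concentration ratio: molar share of summed TCS plus TCS-G plus TCS-sulfate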
Excerpt: To broaden our understanding of TCS metabolic profiles in the gut, we next analyzed TCS metabolism in human subjects. We utilized urine and stool samples from a previous study in which the recruited human subjects were first subjected to a washout period (no usage of TCS-containing products), then were randomly assigned to two groups that used personal care products like toothpaste with or without TCS for up to four months (see the scheme of the experiment in Fig. 1c)[15]. Previous data had established that humans are primarily exposed to TCS via toothpaste that provides a direct oral route to the gastrointestinal tract[16],[17].

[2] = Antibiotic suppression of gut microbiota: TCS colonic metabolism in mice (80 ppm TCS diet, 4 weeks); assay type: in vivo; conditions: 80 ppm TCS via diet 4 weeks; antibiotic cocktail vs none
Excerpt: This antibiotic composition was used in previous studies by others[20],[21] and us[22],[23]. […] After another 4 weeks, the mice were sacrificed, and their tissues were collected for LC-MS/MS analysis.

[3] = TCS colonic metabolism in conventional vs germ-free Swiss Webster mice; assay type: in vivo; conditions: 6 h after oral gavage of 8 mg/kg TCS, individual mice
DSS-induced colitis = DSS-induced colitis in mice: TCS with or without GUSi (colon length, histology, FACS, qRT-PCR); assay type: in vivo
Excerpt: After another 3 weeks, the mice were stimulated with 2% DSS (molecular weight = 36–50 KDa, MP Biomedicals, Solon, OH) in drinking water for 6 days to induce colitis. At end of the experiment, the mice were sacrificed for analysis.
(§1) Total RNA of colon tissues and MC38 cells were isolated using Trizol reagent (Ambion) according to the manufacturer’s instruction. RNA was reverse transcribed into cDNA using the High Capacity cDNA Reverse Transcription kit (Applied Biosystem) according to the manufacturer’s instructions. In all, 20 μL PCR reactions were prepared using the Maxima SYBR Green Master Mix (Thermo Fisher Scientific), and qPCR was carried out using a DNA Engine Opticon System (Bio-Rad Laboratories). Mouse-specific primer sequences (Thermo Fisher Scientific) used to detect inflammatory biomarkers are listed in Supplementary Table S6. Gapdh expression was used as an internal control.
Distal colon tissues were dissected, washed with cold PBS, and digested with Hank’s balanced salt solution (HBSS, Lonza) supplemented with 1 mM dithiothreitol (DTT) and 5 mM EDTA at 4 °C (colon […] cells). The released cells were stained with FITC-conjugated anti-mouse CD45 (BioLegend, Clone: 30-F11), PerCP/Cy5.5-conjugated anti-mouse F4/80 (BioLegend, Clone: BM8), and PE/Cy7-conjugated anti-mouse Ly-6G/Ly-6C (GR-1) (BioLegend, Clone: RB6-8C5) with a 1:100 diluted solution. Cells were stained with Zombie Violet^TM dye (Zombie Violet^TM Fixable Viability Kit; BioLegend) according to the manufacturer’s instructions to exclude dead cells. Gating and cell identification strategies are as follows: briefly, cell doublets and clumps were eliminated using FSC-A gating and debris was eliminated using FSC-A vs SSC-A. Dead cells were gated out using Zombie Violet™ dye. Flow cytometry data were acquired on a BD LSR Fortessa^TMcell analyzer (Becton Dickinson, Franklin Lakes, NJ) and analyzed using FlowJo software (FlowJo, LLC). Gating strategies used for the identification of major immune cell populations are shown in Supplementary Fig. S17.
The dissected colon tissues were fixed in 10% neutral buffered formalin (Thermo Fisher Scientific) for 48 h. After dehydration, the tissues were embedded in paraffin and sliced ([…]) by Rotary Microtome (Thermo Fisher Scientific). The slices were dewaxed in serial xylene and rehydrated through ethanol solutions, stained with hematoxylin and eosin (Sigma-Aldrich), and images were obtained under 200× magnification (BZ-X700 microscope, Keyence, Itasca, IL). The histologic scores were evaluated by a blinded observer according to the following measures: crypt architecture, degree of inflammatory cell infiltration, muscle thickening, goblet cell depletion, and crypt abscess. The histologic damage score is the sum of each individual score.

MC38 cells = assay: Inflammatory response of MC38 intestinal epithelial cells (Il-6 RT-qPCR, IL-6 ELISA); assay type: cell-based, mouse
Method: MC38 intestinal epithelial cells were cultured in Dulbecco’s Modified Eagle Medium (DMEM) supplemented with 10% fetal bovine serum (FBS) and incubated at 37 °C under an atmosphere of 5% CO2. MC38 cells were seeded at 20% confluency and left to settle overnight. Cells were then treated with either 1 μM TCS, TCS-G, or vehicle (DMSO). After 48 h, cells were harvested for RT-qPCR analysis. Cell medium was collected for ELISA analysis using the CBA Mouse Inflammation Kit (BD Sciences) according to the manufacturer’s instructions, and data were acquired using a BD LSR Fortessa flow cytometer (BD Biosciences) and analyzed using FlowJo software (Treestar).
as §1
a. Cultured murine intestinal epithelial MC38 cells were treated with 1 μM of TCS or TCS-G for 48 h prior to
studying inflammatory responses. b. TCS increases the expression of Il-6, which encodes the pro-inflammatory
n = 3 per group from three independent experiments, * P < 0.05, ** P < 0.01, *** P < 0.001.

[4] = LC-MS/MS profiling of TCS metabolism in mice (TCS via diet for 4 weeks); conditions: for concentration of free TCS in the colon digesta: mean; for concentration of TCS, TCS-G, TCS-Sulfate: individual mice
[5] = Antibiotic suppression of gut microbiota: kinetics of TCS colonic metabolism after one-time oral gavage; conditions: within the 24-h period; 8 mg/kg TCS oral gavage
[6] = treatment time 0 months (after washout)
[7] = human stool, TCS-exposed subjects
[8] = human urine, TCS-exposed subjects
[9] = 80 ppm TCS via diet vs vehicle, DSS-induced colitis, without GUSi
[10] = DSS colitis mice, FACS, individual animals, Fig.5d
[11] = DSS colitis mice, gene expression, individual animals, Fig.5e

## Oc1cc(Cl)ccc1Oc1ccc(Cl)cc1Cl [TCS, Triclosan]
[1]; TCS-exposed human subjects, n=7 urine samples
  Profile in urine (%): 1.57%
[1]; TCS-exposed human subjects, n=23 stool samples
  Profile in stool (%): 99.16%
[1]; [6]
  TCS metabolites in human stool: < LOD and 12.62 pmol/ g stool and 10.84 pmol/ g stool and 388.08 pmol/ g stool and 57.90 pmol/ g stool
  TCS metabolites in human urine: < LOD
[1]; treatment time 1 month
  TCS metabolites in human stool: 1094.80 pmol/ g stool and 225.14 pmol/ g stool and 1049.03 pmol/ g stool and 626.33 pmol/ g stool and 215.36 pmol/ g stool and 317.47 pmol/ g stool
  TCS metabolites in human urine: < LOD
[1]; treatment time 2 months
  TCS metabolites in human stool: 372.82 pmol/ g stool and 713.18 pmol/ g stool and 245.09 pmol/ g stool and 96.24 pmol/ g stool and 905.85 pmol/ g stool
  TCS metabolites in human urine: 8.55 nM urine
[1]; treatment time 3 months
  TCS metabolites in human stool: 515.81 pmol/ g stool and 334.49 pmol/ g stool and 515.22 pmol/ g stool and 400.99 pmol/ g stool and 445.98 pmol/ g stool and 105.82 pmol/ g stool
  TCS metabolites in human urine: < LOD
[1]; treatment time 4 months
  TCS metabolites in human stool: 633.76 pmol/ g stool and 67.29 pmol/ g stool and 968.25 pmol/ g stool and 633.96 pmol/ g stool and 135.75 pmol/ g stool and 295.56 pmol/ g stool
  TCS metabolites in human urine: 3.06 nM urine and 6.42 nM urine and 11.23 nM urine and 5.52 nM urine
[1]; [7]
  average molar concentration ratio: 99.2%
  concentration of free TCS measured in stool (highest): ≤ 1 pmol/mg tissue
  concentration of free TCS measured in stool (highest), equated: ~ 1 µM
[1]; [8]
  TCS concentrations in urine: low-nM range
  average molar concentration ratio: 1.6%
[2]
  change of concentration in the fecal content by antibiotic treatment: significantly reduced
[3]; CONV Swiss Webster mice
  tcs, tcs-G in colon digesta: 35.08 pmol/mg and 44.23 pmol/mg and 53.2 pmol/mg and 70.03 pmol/mg and 36.57 pmol/mg and 25.88 pmol/mg and 61.48 pmol/mg and 14.87 pmol/mg
[3]; GF Swiss Webster mice
  tcs, tcs-G in colon digesta: 1.71 pmol/mg and 1.97 pmol/mg and 2.79 pmol/mg and 1.05 pmol/mg and 1.69 pmol/mg
DSS-induced colitis; [9]
  colon length: reduced
  colonic infiltration of immune cells (CD45+ leukocytes, CD45+ F4/80+ macrophages, CD45+ Gr1+ neutrophils): enhanced
  crypt damage: more severe
  expression of pro-inflammatory genes (Tnf-a, Mcp-1, Il-6, Il-17, Il-23) in the colon: increased
DSS-induced colitis; [10]
  cd45+(%): 13.9% and 7.52% and 6.6% and 9.17% and 14.3% and 13.5% and 15.4%
  f4/80+ (%): 6.98% and 7.38% and 21.2% and 6.4% and 16.3% and 14.9% and 17.1%
  gr-1+ (%): 6.98% and 5.74% and 9.62% and 14.5% and 6.12% and 11.4% and 10%
DSS-induced colitis; [11]
  Il-6: 2.766 and 2.25 and 1.456 and 1.055 and 1.808 and 1.047
  Il-17: 3.654 and 3.3461 and 1.6638 and 1.675 and 2.194 and 1.456 and 1.44 and 2.099
  Il-23: 1.246 and 3.908 and 1.924 and 1.869 and 2.972 and 1.28 and 1.3835 and 2.162
  Mcp1: 1.522 and 3.593 and 1.038 and 1.619 and 1.9672 and 1.4511
  Tnf-α: 18.081 and 1.569 and 15.9712 and 7.287 and 5.139 and 4.495 and 3.411
DSS-induced colitis; DSS colitis mice, histology score, individual animals, Fig.5c
  HE: 5 and 10 and 8 and 7 and 9
DSS-induced colitis; DSS colitis mice, individual animals, Fig.5b
  colon length (cm): 5.8 cm and 7.1 cm and 7 cm and 6.3 cm and 6.4 cm and 5.3 cm
MC38 cells; 1 µM, 48 h
  Il-6 gene expression: increased
  medium concentration of IL-6 (ELISA): increased
MC38 cells; MC38 cells, gene expression, replicates
  Il-6 (Fig. S16b): 2.497 and 4.058 and 2.001 and 8.229 and 6.742 and 2.645 and 3.872 and 1.125 and 4.892
MC38 cells; MC38 cells, protein, replicates
  IL-6 (Fig. S16c): 31 pg/mL and 44.92 pg/mL and 38.72 pg/mL and 36.69 pg/mL and 44.27 pg/mL and 53.91 pg/mL and 47.57 pg/mL and 30.74 pg/mL and 39.61 pg/mL
[4]; 1 ppm TCS in diet 4 weeks
  concentration of free TCS in the colon digesta: 1.5 pmol/mg tissue
[4]; 10 ppm TCS in diet 4 weeks
  concentration of free TCS in the colon digesta: 14.7 pmol/mg tissue
[4]; 80 ppm TCS in diet 4 weeks
  concentration of free TCS in the colon digesta: 92.2 pmol/mg tissue
[4]; Cecum (digesta), 80 ppm TCS via diet 4 weeks
  concentration of TCS, TCS-G, TCS-Sulfate: 109.26 pmol/mg and 94.56 pmol/mg and 76.97 pmol/mg
[4]; Feces, 10 ppm TCS in diet 4 weeks
  concentration of TCS, TCS-G, TCS-Sulfate: 22.61 pmol/mg and 75.8 pmol/mg
[4]; Feces, 80 ppm TCS in diet 4 weeks
  concentration of TCS, TCS-G, TCS-Sulfate: 290.88 pmol/mg and 142.03 pmol/mg
[4]; Heart, 80 ppm TCS via diet 4 weeks
  concentration of TCS, TCS-G, TCS-Sulfate: 0.98 pmol/mg and 0.71 pmol/mg and 0.63 pmol/mg
[4]; SI 1st section (digesta), 80 ppm TCS via diet 4 weeks
  concentration of TCS, TCS-G, TCS-Sulfate: 15.09 pmol/mg and 9.94 pmol/mg and 15.65 pmol/mg and 19.61 pmol/mg
[4]; SI 2nd section (digesta), 80 ppm TCS via diet 4 weeks
  concentration of TCS, TCS-G, TCS-Sulfate: 19.75 pmol/mg and 18.37 pmol/mg and 9.51 pmol/mg and 14.12 pmol/mg and 15.69 pmol/mg and 13.92 pmol/mg and 18.94 pmol/mg and 9.21 pmol/mg and 13.42 pmol/mg and 3.48 pmol/mg
[4]; SI 3rd section (digesta), 80 ppm TCS via diet 4 weeks
  concentration of TCS, TCS-G, TCS-Sulfate: 29.24 pmol/mg and 24.80 pmol/mg and 7.10 pmol/mg and 13.01 pmol/mg and 17.21 pmol/mg and 23.02 pmol/mg and 19.18 pmol/mg and 15.52 pmol/mg and 17.98 pmol/mg and 27.55 pmol/mg
[4]; SI 4th section (digesta), 80 ppm TCS via diet 4 weeks
  concentration of TCS, TCS-G, TCS-Sulfate: 31.18 pmol/mg and 38.07 pmol/mg and 17.93 pmol/mg and 37.99 pmol/mg and 55.42 pmol/mg and 35.20 pmol/mg and 31.30 pmol/mg and 21.74 pmol/mg and 18.77 pmol/mg and 46.26 pmol/mg
[4]; digesta of the 4th section of the mouse small intestine, 80 ppm TCS via diet 4 weeks
  share of TCS metabolites found: 36.9%
[4]; fecal content, 80 ppm TCS via diet 4 weeks
  share of TCS metabolites found: 99.1%
[4]; gut sections (colon digesta, cecum digesta, feces), 1, 10 and 80 ppm TCS via diet 4 weeks
  share of detected TCS species present as free TCS: 94-100%
[5]
  reduction of AUC in colon digesta by antibiotic treatment: ~ 40%
